# Patent US10752587B2, “Homobispiperidinyl derivatives as liver X receptor beta agonists, compositions and their use” (Merck Sharp & Dohme Corp., priority 2015, dated 2020)
# Read-outs that look alike come from different tables or passages of the source.
# Columns and labels:
# [1] = biological target: T1, glutathione-S-transferase (GST) tagged LXRbeta LBD (ligand binding domain) (Homo sapiens, UniProt P55055); experiment: LanthaScreen TR-FRET Liver X Receptor Coactivator Assay, co-activator recruitment to LXRbeta LBD; assay type: biochemical
# T1 construct: purchased Invitrogen pv4658.pps
# T1 sequence (P55055 222-460 limits assumed): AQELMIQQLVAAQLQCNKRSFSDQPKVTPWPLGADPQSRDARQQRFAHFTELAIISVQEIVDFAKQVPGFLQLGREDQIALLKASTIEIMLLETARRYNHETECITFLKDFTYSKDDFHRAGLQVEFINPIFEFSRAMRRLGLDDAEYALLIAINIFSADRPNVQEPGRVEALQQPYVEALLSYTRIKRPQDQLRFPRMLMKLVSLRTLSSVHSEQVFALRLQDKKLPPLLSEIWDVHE
# Method in brief: (§1)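 GST-tagged LBD added to test compound, then fluorescein-labelled coactivator peptide plus terbium anti-GST antibody; incubated at room temperature, TR-FRET read. Potency given as inflection point and efficacy as Emax relative to reference dual agonist T0901317.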
# [2] = biological target: T2, glutathione-S-transferase (GST) tagged LXRalpha LBD (ligand binding domain) (Homo sapiens, UniProt Q13133); experiment: LanthaScreen TR-FRET Liver X Receptor Coactivator Assay, co-activator recruitment to LXRalpha LBD; assay type: biochemical
# T2 construct: purchased Invitrogen pv4655
# T2 sequence (Q13133 209-447 limits assumed): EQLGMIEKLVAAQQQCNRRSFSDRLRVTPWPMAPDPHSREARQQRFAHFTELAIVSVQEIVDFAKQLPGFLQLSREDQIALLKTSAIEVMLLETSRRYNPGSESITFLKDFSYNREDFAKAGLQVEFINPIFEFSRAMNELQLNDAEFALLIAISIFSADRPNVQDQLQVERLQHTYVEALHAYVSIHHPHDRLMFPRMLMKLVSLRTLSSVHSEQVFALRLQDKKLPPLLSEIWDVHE
# Method in brief: as §1
# [3] = efficacy at max dose, in relation to reference dual agonist T0901317, read-out: LXR beta Activity @ max dose (%)
# [4] = potency (Inflection Point, IP), co-activator recruitment to LXRbeta LBD, in relation to T0901317, read-out: LXR beta IP
# [5] = efficacy at max dose, in relation to reference dual agonist T0901317, read-out: LXR alpha Activity @ max dose (%)
# [6] = potency (Inflection Point, IP), co-activator recruitment to LXRalpha LBD, in relation to T0901317, read-out: LXR alpha IP
# [7] = potency (Inflection Point, IP), co-activator recruitment to LXRalpha LBD, in relation to T0901317
# [8] = co-activator recruitment to GST-LXRbeta LBD, TR-FRET, read-out: LXR beta IP (Inflection Point, potency)
# [9] = co-activator recruitment to GST-LXRalpha LBD, TR-FRET, read-out: LXR alpha IP (Inflection Point, potency)
SMILES,"Emax [1, 3]","EC50 [1, 4]","Emax [2, 5]","EC50 [2, 6]","LXR alpha IP (nM) [2, 7]","Emax ([1]; efficacy in relation to reference dual agonist T0901317, read-out: LXR beta Activity @ max dose)","Emax ([2]; efficacy in relation to reference dual agonist T0901317, read-out: LXR alpha Activity @ max dose)","EC50 [1, 8]",Emax ([1]; read-out: LXR beta Activity @ max dose),"EC50 [2, 9]",Emax ([2]; read-out: LXR alpha Activity @ max dose)
"CN(C)C(=O)c1ccc(N2CCC(OC3CCN(C(=O)C4(C(F)(F)F)CCCCC4)CC3)CC2)cc1Cl [Example 2-19, 2-chloro-N,N-dimethyl-4-{4-[(1-{[1-(trifluoromethyl)cyclohexyl]carbonyl}piperidin-4-yl)oxy]piperidin-1-yl}benzamide]",75%,0.206 µM,23%,1.81 µM,–,–,–,–,–,–,–
"CN(C)C(=O)c1ccc(N2CCC(CC3CN(S(=O)(=O)c4ccccc4)C3)CC2)cc1Cl [Example 13-1, 2-chloro-N,N-dimethyl-4-(4-((1-(phenylsulfonyl)azetidin-3-yl)methyl)piperidin-1-yl)benzamide]",–,–,–,–,–,–,–,0.061 µM,73%,2.48 µM,37%
"CN(Cc1cncs1)C(=O)c1ccc(N2CCC(CC3CCN(C(=O)[C@](O)(c4ccccc4)C(F)(F)F)CC3)CC2)cc1Cl [Example 4-20, 2-chloro-N-methyl-N-(1,3-thiazol-5-ylmethyl)-4-[4-({1-[(2R)-3,3,3-trifluoro-2-hydroxy-2-phenylpropanoyl]piperidin-4-yl}methyl)piperidin-1-yl]benzamide]",63%,0.095 µM,34%,0.541 µM,–,–,–,–,–,–,–
"CNC(=O)c1ccc(N2CCC(CC3CCN(C(=O)C(O)(c4cc(F)cc(F)c4)C(F)(F)F)CC3)CC2)nc1Cl (stereo not drawn) [Example 7-133, 2-chloro-6-[4-({1-[2-(3,5-difluorophenyl)-3,3,3-trifluoro-2-hydroxypropanoyl]piperidin-4-yl}methyl)piperidin-1-yl]-N-methylpyridine-3-carboxamide]",123%,0.006 µM,66%,0.083 µM,–,–,–,–,–,–,–
"COc1cccc(C(=O)C(=O)N2CCC(CC3CCN(c4ccc(C(=O)N(C)C)c(Cl)c4)CC3)CC2)c1 [Example 2-104, 2-chloro-4-[4-({1-[(3-methoxyphenyl) (oxo)acetyl]piperidin-4-yl}methyl)piperidin-1-yl]-N,N-dimethyl-benzamide]",31%,0.409 µM,3%,–,NO IP,–,–,–,–,–,–
"CN(C)C(=O)c1ccc(N2CCC(CC3CCN(C(=O)[C@](O)(c4ccccc4)C(F)(F)F)CC3)CC2)cc1 [Example 2-128, N,N-dimethyl-4-[4-({1-[(2R)-3,3,3-trifluoro-2-hydroxy-2-phenyl-propanoyl]piperidin-4-yl}methyl)piperidin-1-yl]benzamide]",73%,0.058 µM,34%,1.04 µM,–,–,–,–,–,–,–
"CNC(=O)c1ccc(N2CCC(CC3CCN(C(=O)[C@](O)(c4cc(Cl)cc(OC)c4)C(F)(F)F)CC3)CC2)cc1Cl [Example 7-117, 2-chloro-4-[4-({1-[(2R)-2-(3-chloro-5-methoxyphenyl)-3,3,3-trifuoro-2-hydroxypropanoyl]piperidin-4-yl}methyl)piperidin-1-yl]-N-methylbenzamide]",35%,0.025 µM,0%,–,NO IP,–,–,–,–,–,–
"CC(C)c1cccc([C@@](O)(C(=O)N2CCC(CC3CCN(c4ccc(C(N)=O)c(Cl)c4)CC3)CC2)C(F)(F)F)c1 [Example 12-10, 2-chloro-4-{4-[(1-{(2R)-3,3,3-trifluoro-2-hydroxy-2-[3-(1-methylethyl)phenyl]-propanoyl}piperidin-4-yl)methyl]piperidin-1-yl}benzamide]",–,–,–,–,–,51%,26%,0.008 µM,–,0.085 µM,–
"CN(C)C(=O)c1ccc(N2CCC(CC3CN(C(=O)[C@](O)(c4cc(F)cc(Cl)c4)C(F)(F)F)C3)CC2)nc1Cl [Example 7-40, 2-chloro-6-[4-({1-[(2R)-2-(3-chloro-5-fluorophenyl)-3,3,3-trifluoro-2-hydroxypropanoyl]azetidin-3-yl}methyl)piperidin-1-yl]-N,N-dimethylpyridine-3-carboxamide]",113%,0.004 µM,49%,0.291 µM,–,–,–,–,–,–,–
"CN(C)C(=O)c1ccc(N2CCC(CC3CCN(C(=O)C(O)(c4cccc5ccccc45)C(F)(F)F)CC3)CC2)cc1Cl (stereo not drawn) [Example 2-168, 2-chloro-N,N-dimethyl-4-(4-{[1-(3,3,3-trifluoro-2-hydroxy-2-naphthalen-1-ylpropanoyl)piperidin-4-yl]methyl}piperidin-1-yl)benzamide]",21%,0.058 µM,0%,–,NO IP,–,–,–,–,–,–
"COc1cc(F)cc([C@@](O)(C(=O)N2CCC(CC3CCN(c4ccc(C(=O)N(C)C)c(Cl)n4)CC3)CC2)C(F)(F)F)c1 [Example 7-101, 2-chloro-N,N-dimethyl-6-[4-({1-[(2R)-3,3,3-trifluoro-2-(3-fluoro-5-methoxyphenyl)-2-hydroxypropanoyl]piperidin-4-yl}methyl)piperidin-1-yl]pyridine-3-carboxamide]",84%,0.004 µM,22%,0.041 µM,–,–,–,–,–,–,–

# More lines, main results first:
"Emax [1, 3]","EC50 [1, 4]","Emax [2, 5]","EC50 [2, 6]","LXR alpha IP (nM) [2, 7]","Emax ([1]; efficacy in relation to reference dual agonist T0901317, read-out: LXR beta Activity @ max dose)","Emax ([2]; efficacy in relation to reference dual agonist T0901317, read-out: LXR alpha Activity @ max dose)",SMILES,"EC50 [1, 8]",Emax ([1]; read-out: LXR beta Activity @ max dose),"EC50 [2, 9]",Emax ([2]; read-out: LXR alpha Activity @ max dose)
64%,0.036 µM,25%,0.821 µM,–,–,–,"CN(C)C(=O)c1ccc(N2CCC(CC3CCN(C(=O)C(O)(c4ccsc4)C(F)(F)F)CC3)CC2)cc1Cl (stereo not drawn) [Example 2-30, 2-chloro-N,N-dimethyl-4-(4-{[1-(3,3,3-trifluoro-2-hydroxy-2-thiophen-3-ylpropanoyl)piperidin-4-yl]methyl}piperidin-1-yl)benzamide]",–,–,–,–
36%,0.015 µM,4%,–,NO IP,–,–,"CCc1cccc([C@@](O)(C(=O)N2CCC(CC3CCN(c4ccc(C(=O)N(C)C)c(Cl)c4)CC3)CC2)C(F)(F)F)c1 [Example 2-113, 2-chloro-4-[4-({1-[(2R)-2-(3-ethyl-phenyl)-3,3,3-trifluoro-2-hydroxy-propanoyl]piperidin-4-yl}methyl)piperidin-1-yl]-N,N-dimethyl-benzamide]",–,–,–,–
29%,0.008 µM,0%,–,NO IP,–,–,"CCOc1cccc([C@@](O)(C(=O)N2CCC(C)(CC3CCN(c4ccc(C(=O)N(C)C)c(Cl)c4)CC3)CC2)C(F)(F)F)c1 [Example 2-50, 2-chloro-4-[4-({1-[(2R) 2-(3-ethoxy-phenyl)-3,3,3-trifluoro-2-hydroxy-propanoyl]-4-methyl-piperidin-4-yl}methyl)piperidin-1-yl]-N,N-dimethyl-benzamide]",–,–,–,–
45%,0.009 µM,4%,–,NO IP,–,–,"CCOc1cccc([C@@](O)(C(=O)N2CCC(CC3CCN(c4ccc(C(=O)N(C)C)c(C)c4)CC3)CC2)C(F)(F)F)c1 [Example 2-151, 4-[4-({1-[(2R)-2-(3-ethoxy-phenyl)-3,3,3-trifluoro-2-hydroxy-propanoyl]piperidin-4-yl}methyl)piperidin-1-yl]-N,N,2-trimethyl-benzamide]",–,–,–,–
76%,0.012 µM,25%,0.162 µM,–,–,–,"Cc1cc(F)cc(C(O)(C(=O)N2CCC(CC3CCN(c4ccc(C(=O)N(C)C)c(Cl)c4)CC3)CC2)C(F)(F)F)c1 (stereo not drawn) [Example 2-42, 2-chloro-N,N-dimethyl-4-[4-({1-[3,3,3-trifluoro-2-(3-fluoro-5-methylphenyl)-2-hydroxy-propanoyl]piperidin-4-yl}methyl)piperidin-1-yl]benzamide]",–,–,–,–
54%,0.036 µM,6%,–,NO IP,–,–,"CN(C)C(=O)c1ccc(N2CCC(CC3CCN(C(=O)[C@](O)(c4cc(Cl)cc(Cl)c4)C(F)(F)F)CC3)CC2)cc1 [Example 2-133, 4-[4-({1-[(2R)-2-(3,5-dichloro-phenyl)-3,3,3-trifluoro-2-hydroxy-propanoyl]piperidin-4-yl}methyl)piperidin-1-yl]-N,N-dimethyl-benzamide]",–,–,–,–
69%,0.005 µM,14%,0.12 µM,–,–,–,"COc1cccc([C@@](O)(C(=O)N2CCC(CC3CCN(c4ccc(C(=O)N(C)C)c(Cl)n4)CC3)CC2)C(F)(F)F)c1 [Example 7-52, 2-chloro-N,N-dimethyl-6-[4-({1-[(2R)-3,3,3-trifluoro-2-hydroxy-2-(3-methoxyphenyl)propanoyl]piperidin-4-yl}methyl)piperidin-1-yl]pyridine-3-carboxamide]",–,–,–,–
